Here are results for 20 compounds from BindingDB's records for doi:10.1016/j.bmcl.2014.07.007 (Astrazeneca, 2014).

Experiment [1] has as its target Phosphatidylinositol 4,5-bisphosphate 3-kinase catalytic subunit alpha isoform (Homo sapiens, UniProt P42336). Kind of experiment: Inhibition of human recombinant PI3Kalpha assessed as PIP3 production by AlphaScreen assay.
Experiment [2] concerns the target Phosphatidylinositol 4,5-bisphosphate 3-kinase catalytic subunit beta isoform (Homo sapiens, UniProt P42338). Kind of experiment: Inhibition of human recombinant PI3Kbeta assessed as PIP3 production by AlphaScreen assay. In general terms: In Alpha technology, singlet oxygen from a donor bead excites a nearby acceptor bead.

Structures are written as SMILES.

Phosphatidylinositol 4,5-bisphosphate 3-kinase catalytic subunit beta isoform, sequence (P42338 whole entry, canonical isoform): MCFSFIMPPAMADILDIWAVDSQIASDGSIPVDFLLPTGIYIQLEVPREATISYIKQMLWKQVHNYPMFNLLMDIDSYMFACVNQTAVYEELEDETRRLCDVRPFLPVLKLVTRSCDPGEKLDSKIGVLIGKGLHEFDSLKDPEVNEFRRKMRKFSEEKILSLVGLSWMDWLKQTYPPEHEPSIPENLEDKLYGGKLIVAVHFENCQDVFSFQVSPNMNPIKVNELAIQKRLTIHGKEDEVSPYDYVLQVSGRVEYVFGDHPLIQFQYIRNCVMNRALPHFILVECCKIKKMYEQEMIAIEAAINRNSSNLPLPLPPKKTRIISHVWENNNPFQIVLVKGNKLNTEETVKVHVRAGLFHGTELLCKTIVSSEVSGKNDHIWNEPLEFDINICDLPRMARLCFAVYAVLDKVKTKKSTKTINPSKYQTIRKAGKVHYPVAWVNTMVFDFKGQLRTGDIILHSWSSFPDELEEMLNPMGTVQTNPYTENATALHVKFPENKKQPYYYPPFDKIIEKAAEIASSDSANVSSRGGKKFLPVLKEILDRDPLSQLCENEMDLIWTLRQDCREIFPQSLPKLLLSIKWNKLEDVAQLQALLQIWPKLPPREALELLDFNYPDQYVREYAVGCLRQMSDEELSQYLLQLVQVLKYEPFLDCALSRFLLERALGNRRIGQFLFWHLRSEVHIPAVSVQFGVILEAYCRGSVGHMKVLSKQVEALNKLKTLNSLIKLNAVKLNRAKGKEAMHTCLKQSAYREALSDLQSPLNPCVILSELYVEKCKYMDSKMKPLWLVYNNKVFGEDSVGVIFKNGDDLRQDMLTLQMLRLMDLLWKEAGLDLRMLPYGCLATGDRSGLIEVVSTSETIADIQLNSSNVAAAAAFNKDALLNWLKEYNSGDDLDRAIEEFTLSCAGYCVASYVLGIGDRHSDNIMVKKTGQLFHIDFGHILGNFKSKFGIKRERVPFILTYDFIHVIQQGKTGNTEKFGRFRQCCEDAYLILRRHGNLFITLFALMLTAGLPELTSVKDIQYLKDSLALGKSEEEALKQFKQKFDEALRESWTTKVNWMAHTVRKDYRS
Phosphatidylinositol 4,5-bisphosphate 3-kinase catalytic subunit alpha isoform, sequence (P42336 whole entry, canonical isoform): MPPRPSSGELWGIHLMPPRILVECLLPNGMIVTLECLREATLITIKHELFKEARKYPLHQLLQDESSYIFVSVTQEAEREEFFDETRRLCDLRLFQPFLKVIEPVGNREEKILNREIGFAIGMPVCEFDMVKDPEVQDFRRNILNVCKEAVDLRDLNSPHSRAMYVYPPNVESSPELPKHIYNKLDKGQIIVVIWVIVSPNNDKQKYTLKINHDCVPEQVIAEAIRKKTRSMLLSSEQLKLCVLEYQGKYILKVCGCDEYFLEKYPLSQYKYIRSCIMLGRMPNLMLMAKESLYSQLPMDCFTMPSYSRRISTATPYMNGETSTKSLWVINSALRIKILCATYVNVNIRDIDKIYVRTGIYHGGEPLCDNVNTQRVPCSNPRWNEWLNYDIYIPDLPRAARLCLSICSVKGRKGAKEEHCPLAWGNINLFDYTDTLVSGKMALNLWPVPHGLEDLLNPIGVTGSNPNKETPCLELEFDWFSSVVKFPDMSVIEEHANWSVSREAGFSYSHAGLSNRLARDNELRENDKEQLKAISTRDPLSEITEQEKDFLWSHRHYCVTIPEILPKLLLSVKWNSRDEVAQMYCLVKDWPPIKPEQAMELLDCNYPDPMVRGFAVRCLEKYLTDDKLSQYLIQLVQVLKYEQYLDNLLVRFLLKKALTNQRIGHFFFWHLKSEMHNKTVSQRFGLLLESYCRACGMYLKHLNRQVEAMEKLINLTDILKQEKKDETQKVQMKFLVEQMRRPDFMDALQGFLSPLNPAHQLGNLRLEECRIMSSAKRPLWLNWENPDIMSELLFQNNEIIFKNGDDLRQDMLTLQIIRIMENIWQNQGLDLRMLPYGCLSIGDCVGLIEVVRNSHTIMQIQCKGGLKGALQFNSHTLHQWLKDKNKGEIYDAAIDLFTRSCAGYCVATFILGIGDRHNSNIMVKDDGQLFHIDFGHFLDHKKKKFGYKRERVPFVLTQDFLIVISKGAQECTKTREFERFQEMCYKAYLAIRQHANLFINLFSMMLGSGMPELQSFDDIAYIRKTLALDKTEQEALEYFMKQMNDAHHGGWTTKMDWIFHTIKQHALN

With `CC(Nc1ccccc1)c1cc(C(=O)N(C)C)cn2c(=O)cc(N3CCOCC3)nc12` (centres undefined), the half-maximal inhibitory concentration (IC50) – broadly, the concentration that gives 50% inhibition – in experiment [1] worked out at 2500 nM; in experiment [2], 68 nM.

In the case of `CC(Nc1ccccc1)c1cc(C(=O)NCCN(C)C)cn2c(=O)cc(N3CCOCC3)nc12` (centres undefined), the IC50 is 2300 nM in experiment [1] and 35 nM in experiment [2].

Turning to `Cc1cc(C(C)Nc2ccccc2-c2nnn[nH]2)c2nc(N3CCOCC3)cc(=O)n2c1` (centres undefined), the IC50 in experiment [1] worked out at 1410 nM; in experiment [2], 51 nM.

Turning to `Cc1cc(C(C)Nc2ccccc2S(=O)(=O)O)c2nc(N3CCOCC3)cc(=O)n2c1` (centres undefined), the values for the IC50 in experiment [1] and in experiment [2] were 330 nM and 30 nM, respectively.

Regarding `Cc1cc(C(C)Nc2cc(Cl)ccc2C(=O)O)c2nc(N3CCOCC3)cc(=O)n2c1` (centres undefined), the IC50 in experiment [1] came to 1460 nM; in experiment [2], 31 nM.

For the compound `Cc1cc(C(C)Nc2cccc(C(=O)O)c2)c2nc(N3CCOCC3)cc(=O)n2c1` (centres undefined), the IC50 in experiment [1] worked out at 12100 nM; in experiment [2] it was 4800 nM.

With `Cc1c(F)cccc1OC(C)c1cc(C(=O)N(C)CCO)cn2c(=O)cc(N3CCOCC3)nc12` (centres undefined), the IC50 came to 600 nM in experiment [1] and 46 nM in experiment [2].

For `Cc1cc(OC(C)c2cc(C(=O)N(C)CCO)cn3c(=O)cc(N4CCOCC4)nc23)ccc1F` (centres undefined), the IC50 in experiment [2] was 200 nM.

Regarding `COc1cccc(OC(C)c2cc(C(=O)N(C)CCO)cn3c(=O)cc(N4CCOCC4)nc23)c1` (centres undefined), the IC50 in experiment [1] worked out at 4500 nM; in experiment [2], 47 nM.

On to `COc1ccccc1OC(C)c1cc(C(=O)N(C)CCO)cn2c(=O)cc(N3CCOCC3)nc12` (centres undefined), for which the IC50 in experiment [1] is 2500 nM; in experiment [2], 400 nM.

As for `CC(Oc1cccc(C#N)c1)c1cc(C(=O)N(C)CCO)cn2c(=O)cc(N3CCOCC3)nc12` (centres undefined), the IC50 in experiment [1] came out at 8200 nM; in experiment [2], 1700 nM.

Regarding `CC(Oc1ccccc1F)c1cc(C(=O)N(C)CCO)cn2c(=O)cc(N3CCOCC3)nc12` (centres undefined), the figures for the IC50 in experiment [1] and in experiment [2] were 3400 nM and 660 nM, respectively.

Consider `Cc1cccc(OC(C)c2cc(C(=O)N(C)CCO)cn3c(=O)cc(N4CCOCC4)nc23)c1` (centres undefined), for which the IC50 was found to be 9400 nM in experiment [1] and 180 nM in experiment [2].

In the case of `Cc1ccccc1OC(C)c1cc(C(=O)N(C)CCO)cn2c(=O)cc(N3CCOCC3)nc12` (centres undefined), the IC50 in experiment [1] was found to be 1300 nM; in experiment [2], 110 nM.

Regarding `CC(Oc1ccccc1)c1cc(C(=O)N(C)CCO)cn2c(=O)cc(N3CCOCC3)nc12` (centres undefined), the IC50 in experiment [1] came out at 10100 nM; in experiment [2], 190 nM.

`CC(Nc1ccccc1)c1cc(C(=O)NCCN2CCNCC2)cn2c(=O)cc(N3CCOCC3)nc12` (centres undefined): the figures for the IC50 in experiment [1] and in experiment [2] were 4800 nM and 76 nM, respectively.

Take `CC(Nc1ccccc1)c1cc(C(=O)N(C)CC(=O)O)cn2c(=O)cc(N3CCOCC3)nc12` (centres undefined): the IC50 in experiment [1] is 3800 nM; in experiment [2], 340 nM.

For `CC(Nc1ccccc1)c1cc(C(=O)N2CCOCC2)cn2c(=O)cc(N3CCOCC3)nc12` (centres undefined), the figures for the half-inhibitory concentration (IC50) in experiment [1] and in experiment [2] were 6900 nM and 140 nM, respectively.

On to `CC(Nc1ccccc1)c1cc(C(=O)N(C)CCO)cn2c(=O)cc(N3CCOCC3)nc12` (centres undefined), for which the IC50 in experiment [1] was determined as 2200 nM; in experiment [2], 58 nM.

Consider `CC(Nc1ccccc1)c1cc(C(=O)O)cn2c(=O)cc(N3CCOCC3)nc12` (centres undefined), for which the IC50 in experiment [1] is 610 nM; in experiment [2], 59 nM.
